{"source": "patent US20200022995A1", "about": "“Novel Immunodulating Small Molecules” (AyuVis Research, Inc., priority 2018, published 2020)", "key": {"[1]": {"test_system": "P. aeruginosa (ATCC-10145 GFP) infected skin wounds", "assay": "Murine skin wound infection with P. aeruginosa", "assay_type": "in vivo, C57BL/6 mice", "procedure": "Five groups of C57BL/6 mice (8-10 weeks old, n=4) were wounded on the dorsal surface. 25 ul containing 10^6 CFU/mL P. aeruginosa in a PBS suspension were pipetted onto the wound and allowed to absorb for at least 3 min. […] Subsequently and for the next 13 days, infected wounds were treated each alternate day with colistin, or with test compounds."}, "neonatal pups with BPD": {"test_system": "neonatal pups with BPD", "assay": "Hyperoxia mouse model of BPD (newborn pups)", "assay_type": "in vivo", "excerpt": "Neonatal mice and humans undergo similar stages of lung development but differ with respect to the duration of each stage and its temporal relationship to gestational age. The lungs of the mouse born at term are in the saccular stage and are surfactant sufficient; this can be considered somewhat akin to a human preterm neonate in the same stage of lung development that has been exposed to a full complement of antenatal steroids (which is known to enhance surfactant production). In terms of mimicking the human condition, the most successful hyperoxia models are those that limit exposure to hyperoxia to the saccular stage of pulmonary development. The mouse BPD model involves exposing newborn mice (postnatal day 1 or PN1) to 100% oxygen till PN4 followed by recovery in room air (RA) for another 10 days.\nAfter the recovery period, their lungs were harvested and processed for quantitative PCR, western blotting, histopathology and ELISA.\nEach of the compounds 3, 8 or 32 encapsulated in PLGA nanoparticles referred as 3NP, 8NP and 32NP was instilled intranasally (IN) as nanosuspension to newborn pups on PN2 and PN4 at different doses (FIG. 28). After the recovery period, their lungs were harvested and processed for quantitative PCR, western blotting and histopathology and ELISA.\nBPD is characterized by large simplified alveoli, inflammation, increased cell death, decreased cell proliferation, dysmorphic capillary configuration, and variable interstitial cellularity and/or fibroproliferation. […] This is determined by measuring the alveolar chord length, septal thickness and radial alveolar count (RAC). In BPD, the alveolar area increases which is characterized by increase in the diameter of the alveolar sacs, the septa become thickened (thus interfering in gaseous exchange) and the RAC, a parameter used to assess the complexity of terminal respiratory unit by pulmonologists, decreases as a result of arrested lung development."}, "[2]": {"test_system": "hyperoxia-induced lung injury in mice", "assay": "Hyperoxia induced ALI model", "assay_type": "in vivo, C57BL/6 mice", "details": "IP, 10 mg/kg", "procedure": "Male C57BL/6 mice (Jackson Laboratories,) 12-15 weeks old, 25-28 gms, housed up to 5 per cage were used.\nHyperoxia induced ALI model: The ARDS model consists of exposing adult mice in 100% oxygen for 48 h followed by injecting with test compounds. Adult mice (N=5) were housed in plexi chamber with a constant and continuous supply of 100% oxygen for 48 h. […] The mice were sacrificed after 48 h to harvest lung tissues and collect (BAL) fluid."}, "HUVECs [3]": {"test_system": "HUVECs", "assay": "Cytotoxicity in HUVECs (MTT)", "assay_type": "cell-based, human", "details": "100 μM, 24 h", "procedure": "Selected TLR2/4 antagonist compounds 2, 6, 7, 8, 14, 17 and 32 were evaluated for cytotoxicity in HUVECs at 100 μM concentration. The cells were treated with compounds and incubated for 24 h. Cell viability was assessed using MTT cell proliferation kit (Promega). All the compounds were not toxic to HUVECs (FIG. 15)."}, "[4]": {"test_system": "E. coli, P. aeruginosa, A. baumanni, MRSA", "assay": "Broth dilution assay against gram negative and gram positive bacteria", "assay_type": "cell-based"}, "TLR4": {"target": "TLR4 (Homo sapiens, UniProt O00206)", "sequence (O00206 24-839)": "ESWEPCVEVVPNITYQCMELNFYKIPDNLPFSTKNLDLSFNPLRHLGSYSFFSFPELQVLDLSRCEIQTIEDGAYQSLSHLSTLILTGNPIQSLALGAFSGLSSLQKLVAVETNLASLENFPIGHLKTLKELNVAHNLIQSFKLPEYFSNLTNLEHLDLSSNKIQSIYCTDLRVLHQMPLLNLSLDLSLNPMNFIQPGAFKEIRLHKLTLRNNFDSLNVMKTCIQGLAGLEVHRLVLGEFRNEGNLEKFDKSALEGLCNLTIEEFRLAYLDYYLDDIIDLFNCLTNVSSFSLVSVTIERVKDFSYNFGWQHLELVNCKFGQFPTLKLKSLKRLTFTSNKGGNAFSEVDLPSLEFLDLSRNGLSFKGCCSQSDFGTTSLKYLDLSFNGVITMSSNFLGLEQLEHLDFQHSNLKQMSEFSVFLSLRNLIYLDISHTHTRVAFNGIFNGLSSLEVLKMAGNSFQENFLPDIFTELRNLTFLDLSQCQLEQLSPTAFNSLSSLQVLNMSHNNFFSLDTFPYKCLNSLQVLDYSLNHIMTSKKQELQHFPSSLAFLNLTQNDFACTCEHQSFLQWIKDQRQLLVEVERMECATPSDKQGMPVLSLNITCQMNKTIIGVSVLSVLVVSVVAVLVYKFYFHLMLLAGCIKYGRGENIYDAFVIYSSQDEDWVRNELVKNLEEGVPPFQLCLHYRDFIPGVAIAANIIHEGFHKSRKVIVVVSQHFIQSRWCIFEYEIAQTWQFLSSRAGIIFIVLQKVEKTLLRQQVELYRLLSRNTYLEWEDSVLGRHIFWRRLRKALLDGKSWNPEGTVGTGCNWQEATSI", "assay": "IL-1β ELISA in hPBMC, alone or with TLR4 ligand LPS", "assay_type": "cell-based", "set-up": "endogenous in cells", "excerpt": "Compound 8 modulates the TLR4 activities in a concentration dependent manner."}, "TLR7/8": {"test_system": "TLR7/8", "assay": "IL-1β ELISA in hPBMC, alone or with TLR7/8 ligand CL075", "assay_type": "cell-based, human", "excerpt": "Compound 8 modulates the TLR7/8 activities in a concentration dependent manner."}, "TLR1/2": {"target": "T1, TLR1/2 (Homo sapiens, UniProt O60603)", "T1 construct": "downregulate the IL-6 protein level in hPBMC after 24 h; endogenous in cells; host or cells: hPBMC", "T1 sequence (O60603 21-784)": "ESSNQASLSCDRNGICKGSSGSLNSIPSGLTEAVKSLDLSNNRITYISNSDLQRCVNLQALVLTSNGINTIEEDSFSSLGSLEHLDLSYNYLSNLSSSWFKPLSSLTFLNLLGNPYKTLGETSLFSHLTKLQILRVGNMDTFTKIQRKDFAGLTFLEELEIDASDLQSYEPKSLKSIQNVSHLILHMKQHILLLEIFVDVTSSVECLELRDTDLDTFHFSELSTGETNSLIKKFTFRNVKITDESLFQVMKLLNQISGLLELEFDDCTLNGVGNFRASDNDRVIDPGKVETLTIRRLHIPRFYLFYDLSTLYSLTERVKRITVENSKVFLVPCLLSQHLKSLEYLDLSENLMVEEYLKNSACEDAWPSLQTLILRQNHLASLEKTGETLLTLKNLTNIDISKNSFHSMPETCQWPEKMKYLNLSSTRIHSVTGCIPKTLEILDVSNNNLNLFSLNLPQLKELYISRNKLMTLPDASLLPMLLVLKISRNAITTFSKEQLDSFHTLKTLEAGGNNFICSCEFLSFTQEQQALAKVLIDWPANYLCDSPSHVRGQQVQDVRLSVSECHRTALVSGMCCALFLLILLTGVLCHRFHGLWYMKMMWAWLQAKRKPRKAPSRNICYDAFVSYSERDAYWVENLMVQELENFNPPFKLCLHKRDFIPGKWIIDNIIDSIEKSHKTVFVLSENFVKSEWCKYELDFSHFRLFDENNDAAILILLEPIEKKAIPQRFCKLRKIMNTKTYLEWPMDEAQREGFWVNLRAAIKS", "assay": "IL-6 ELISA in hPBMC with TLR1/2 ligand Pam3CSK4", "assay_type": "cell-based", "details": "0.1 μM to <1 μM, 24 h", "excerpt": "Compound 8 modulates the TLR1/2 activities in a concentration dependent manner."}, "HUVECs [5]": {"test_system": "HUVECs", "assay": "Anti-angiogenic activity, VEGF induced tube formation in HUVECs", "assay_type": "cell-based, human", "details": "VEGF 100 ng/mL", "procedure": "Selected TLR2/4 antagonist compounds 2, 6, 7, 8, 14, 17 and 32 were evaluated for anti-angiogenic activity using the Tube Formation kit (Cat #3470-096-K). VEGF (100 ng/mL) was used as positive control. These compounds have potential applications in diseases associated with pathological angiogenesis such as solid tumor, […], diabetic retinopathy as well as AMD."}}, "data": [{"smiles": "CC(=O)N[C@H]1[C@H](Oc2ccc([N+](=O)[O-])cc2)O[C@H](CO)[C@@H](O)[C@@H]1O", "note": "[Compound 8, p-Nitrophenyl 2-acetamido-2-deoxy-β-D-glucopyranoside]", "values": [{"measurement": "wound closure at day 13", "setting": "[1]; 25 μl Colistin 4 μg/ml or compound 100 μg/ml, each alternate day", "result": "complete closure"}, {"measurement": "bacterial numbers versus untreated control", "setting": "[1]; 13 days post infection", "result": "statistically significant reduction"}, {"measurement": "re-epithelialization and granulation tissue versus controls", "setting": "[1]; H&E histology, day 13 post-injury", "result": "borderline non-significant"}, {"measurement": "CFU in tissues", "setting": "[1]; topical, 100 μM, C57BL6 mice", "result": "decreased"}, {"measurement": "closure of P. aeruginosa infected skin wounds", "setting": "[1]; topical, 100 μM, C57BL6 mice", "result": "effectively closed"}, {"measurement": "anti-inflammatory cytokine IL-10", "setting": "neonatal pups with BPD; 10 mg/kg, ELISA", "result": "increase"}, {"measurement": "inflammatory cytokines and chemokines (MIP-2, MCP-1, IL-17, IFN-Y, TNF-α, IL-1β, and IL-6)", "setting": "neonatal pups with BPD; 10 mg/kg, ELISA", "result": "decreases"}, {"measurement": "lung injury in neonatal pups with BPD", "setting": "neonatal pups with BPD; mouse model of BPD", "result": "prevent lung injury"}, {"measurement": "TLR4 inhibition in an in vivo model system", "setting": "neonatal pups with BPD; neonatal pups with BPD", "result": "inhibit TLR4"}, {"measurement": "lung architecture", "setting": "neonatal pups with BPD; saline IV and nanosuspension IN", "result": "restored"}, {"measurement": "protection against hyperoxia induced lung injury", "setting": "[2]; 100% oxygen 48 h", "result": "significant protection"}, {"measurement": "hyperoxia-induced lung inflammation", "setting": "[2]; mice", "result": "ameliorated"}, {"measurement": "cytotoxicity in HUVECs", "setting": "HUVECs [3]", "result": "not toxic"}, {"measurement": "MIC90", "setting": "[4]; compound alone, range over the bacteria screened", "result": "50 to 200", "unit": "µg/mL"}, {"measurement": "MIC", "setting": "[4]; in combination with colistin", "result": "3.1 to 6.25", "unit": "µg/mL"}, {"measurement": "IL-1β protein level", "setting": "TLR4; 0.1 μM to <1 μM, alone or with LPS, 24 h, ELISA", "result": "downregulate"}, {"measurement": "production of IL-1β", "setting": "TLR4; 1.0 μM, alone and with LPS", "result": "significantly stimulated"}, {"measurement": "IL-1β protein level", "setting": "TLR7/8; 0.1 μM to <1 μM, alone or with CL075, hPBMC, 24 h, ELISA", "result": "downregulate"}, {"measurement": "production of IL-1β", "setting": "TLR7/8; 1.0 μM, alone and with CL075, hPBMC", "result": "significantly stimulated"}, {"measurement": "IL-6 protein level", "setting": "TLR1/2", "result": "downregulate"}, {"measurement": "VEGF induced tube formation", "setting": "HUVECs [5]", "result": "significantly deceased"}]}]}
